Where “and” joins values, the source holds several entries; their conditions need not be identical. Equal entries are not always repeated.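 Five concentrations, 48 hours, 96-well plates. GI50 marks 50% less growth. TGI is the concentration that stops growth completely.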
Assays:
Experiment in all cases: inhibition of tumour cell growth, NCI panel, 48 h
CAKI-1 renal = system: CAKI-1 renal
SF-539 CNS = system: SF-539 CNS
NCI-H226 lung = system: NCI-H226 lung
UO-31 renal = system: UO-31 renal
SK-MEL-2 melanoma = system: SK-MEL-2 melanoma
K-562 leukemia = system: K-562 leukemia
MALME-3M melanoma = system: MALME-3M melanoma
ACHN renal = system: ACHN renal
SF-295 CNS = system: SF-295 CNS
HOP-92 NSCLC = system: HOP-92 NSCLC

SMILES	GI50 (CAKI-1 renal) [µM]	TGI (CAKI-1 renal)	GI50 (SF-539 CNS) [µM]	TGI (SF-539 CNS)	GI50 (NCI-H226 lung) [µM]	TGI (NCI-H226 lung) [µM]	GI50 (UO-31 renal) [µM]	TGI (UO-31 renal) [µM]	GI50 (SK-MEL-2 melanoma) [µM]	TGI (SK-MEL-2 melanoma) [µM]	GI50 (K-562 leukemia) [µM]	TGI (K-562 leukemia) [µM]	GI50 (MALME-3M melanoma) [µM]	TGI (MALME-3M melanoma)	GI50 (ACHN renal) [µM]	TGI (ACHN renal)	GI50 (SF-295 CNS) [µM]	TGI (SF-295 CNS)	GI50 (HOP-92 NSCLC) [µM]	TGI (HOP-92 NSCLC) [µM]
CCC(C(=O)[C@@H](C)[C@@H](O)[C@H](C)[C@@H]1O[C@@H]([C@@H](CC)C(=O)ONC(=O)c2ccccc2)CC[C@@H]1C)[C@H]1O[C@]2(C=CC(=O)[C@]3(CC[C@@](C)([C@H]4CC[C@](O)(CC)[C@H](C)O4)O3)O2)[C@H](C)C[C@@H]1C (some centres not stated)	1.01	2.71 µM	0.262	1.71 µM	0.749	3.56	0.403	1.79	1.07	2.91	0.171	1.79	0.168	1.06 µM	0.641	2.03 µM	0.384	2.08 µM	0.141	1.87
Cc1nn(-c2ccccc2)c2nc(C)n(-c3ccc(Br)cc3)c(=O)c12	0.416	> 100 µM	0.35	7.09 µM	1.01	> 100	0.631	36.7	0.654	> 100	0.302	> 100	12.1	76.9 µM	0.584	> 100 µM	0.357		0.579	68
CC[Si](CC)(CC)OC1[C@@H](O[Si](CC)(CC)CC)[C@@H](CNC(=O)NC)O[C@H]1n1cnc2c(NC(=O)Nc3ccccc3)ncnc21 (some centres not stated)	2.76	12.2 µM	7.02	> 100 µM	5.11	> 100	2.8	18.1	2.49	5.9	3.49	> 100	2.39	6.67 µM	3.44	> 100 µM	2.89	11.7 µM	1.58	5.26
CC1(C)CC[C@]2(CO)CC[C@]3(C)C(=CC[C@@H]4[C@@]5(C)CCNCC(C)(C)[C@@H]5CC[C@]43C)[C@@H]2C1	3.64	11.9 µM	10.6	23.1 µM	16.8	35.5	5.33	21.2	2.32	5.57	2.6	16.5	1.69	3.71 µM	4.91	16.6 µM	1.93	3.97 µM	1.4	4.14
CCC(C)C(=O)OC1CCC=C2C=CC(C)C(CCC3CC(O)CC(=O)O3)C21 (configuration not stated)		29 µM		> 29.5 µM		> 100		> 100		> 100		> 100		> 100 µM		> 88 µM		> 100 µM	0.79	> 100
O=C(CCl)Nc1ccc(Cc2ccc(NC(=O)CCl)cc2)cc1	1.62	3.38 µM	1.66	3.28 µM	3.14	> 100	2.77	> 23.4	2.46	7.54	1.67	> 100	1.39	3.17 µM	1.56	3.03 µM	3.55	19.7 µM	2.09	5.12
c1ccc2c(c1)[nH]c1c3ccccc3sc21		> 100 µM		> 100 µM		> 100		> 100		> 100		> 100		> 100 µM		> 100 µM		> 100 µM		> 100
COc1ccc2nc3ccccc3c(NCc3ccccc3)c2c1	1.94	6.82 µM	1.94	3.96 µM	2.79	8.69	1.54	5.34	2.2	4.9	2.43	11.5	1.75	3.22 µM	2.01	5.97 µM	2.13	5.86 µM	2.33	7.88
O=C(Nc1ccc(Cl)cc1)N1CCN(c2ccc3nncn3n2)CC1	30.3	> 100 µM	> 100	> 100 µM	68.4	> 100	24.9	> 100	65.4	> 100	22	> 100	89.1	> 100 µM	50.6	> 100 µM	53.4	> 100 µM	31.7	> 100
CCOC(=O)CCn1cnc(N)n1		> 100 µM		> 100 µM		> 100		> 100		> 100		> 100		> 100 µM		> 100 µM		> 100 µM		> 100
C1=C\CCCCN2CC[C@H]3[C@H](CCCC/C=C\CCCN4C[C@@H](CCCCC/1)C[C@@H]3C4)C2	5.13	14.1 µM	3.24	11.5 µM	13.5	27.7	4.35	10.5	10.4	26.3	2.37		2.13	5.43 µM	2.8	10.5 µM	5.3	12.1 µM	4.04	20.1
Cc1cn(C2CC(O)C(COC(N)=O)O2)c(=O)[nH]c1=O (configuration not stated)		> 100 µM		> 100 µM		> 100		> 100		> 100		> 100		> 100 µM		> 100 µM		> 100 µM		> 100
C/C(=N\NC(=S)N1CCN(c2ccccn2)CC1)c1cccc2cccnc12		> 100 µM		> 31.6 µM		38.4		> 56.5		8.56		> 100		> 100 µM		> 100 µM		55.8 µM		52.3
O=C(Nc1cc2cc([N+](=O)[O-])ccc2oc1=O)c1cccs1		> 100 µM		69.9 µM		> 100		> 100		> 100		> 100		> 100 µM		> 100 µM		> 100 µM		> 100
Nc1ncnc2c1ncn2CCCCC(=O)O		> 100 µM		> 100 µM		> 100		> 100		> 100		> 100		> 100 µM		> 100 µM		> 100 µM		> 100
c1ccc(/C(=N\Nc2nc3ccccc3s2)c2ccccn2)cc1		> 100 µM		> 56.6 µM		29.7		16.3		> 61.8		> 44.1		34.4 µM		> 28.8 µM		> 100 µM		> 71.6

SMILES	GI50 (CAKI-1 renal) [µM]	TGI (CAKI-1 renal)	GI50 (SF-539 CNS) [µM]	TGI (SF-539 CNS)	GI50 (NCI-H226 lung) [µM]	TGI (NCI-H226 lung) [µM]	GI50 (UO-31 renal) [µM]	TGI (UO-31 renal) [µM]	GI50 (SK-MEL-2 melanoma) [µM]	TGI (SK-MEL-2 melanoma) [µM]	GI50 (K-562 leukemia) [µM]	TGI (K-562 leukemia) [µM]	GI50 (MALME-3M melanoma) [µM]	TGI (MALME-3M melanoma)	GI50 (ACHN renal) [µM]	TGI (ACHN renal)	GI50 (SF-295 CNS) [µM]	TGI (SF-295 CNS)	GI50 (HOP-92 NSCLC) [µM]	TGI (HOP-92 NSCLC) [µM]
Cc1ccc2c(c1)C(O)(c1ccccc1)CCS2 (configuration not stated)		53.6 µM		55 µM		82.4		48.7		80.4		> 100		93.5 µM		62.6 µM		80.3 µM		77.9
COc1cc(/C=C/c2ccnc3ccccc23)cc(OC)c1OC	1.89	20.8 µM and 26.8 µM		11.5 µM and 23.3 µM		50.9		> 100		> 100	0.746	> 100	3.88	42.5 µM and > 100 µM	4.89	92 µM and > 100 µM	3.12	> 100 µM and 53 µM	2.07	9.08
C/C=C(\C)C(=O)O[C@@H]1C=CC(=O)O[C@H]1CNC(=O)[C@H](C)O	17.8	36.5 µM	23.3	57.5 µM	28.9	> 81.4	21.3	59.1	20	48.5	16.9	64.2	15	32.8 µM	15.9	31.2 µM	27.7	> 66.7 µM	17.4	37.5
Cn1cc(-c2nc(-c3cn(C)c4ncccc34)cs2)c2ccccc21	0.972	> 100 µM	1.76	4.99 µM	2.29	14.4	4.93	> 100	4.5	68.7	0.412	> 100	0.468	5.64 µM	3.67	79.4 µM	1.22	10.8 µM	1.68	9.39
CCC(=C(c1ccc(OCCN2CCCC2)cc1)c1ccc(OCCN2CCCC2)cc1)c1ccc(Cl)cc1	0.52	0.992 µM	0.558	1.05 µM	0.735	1.63	0.5	0.965	0.688	1.35	0.226	0.751	0.564	1.07 µM	0.585	1.06 µM	0.637	1.23 µM	0.482	1.04
O=C(O)c1[nH]c2c([N+](=O)[O-])cc([N+](=O)[O-])cc2c1C(=O)O		> 100 µM		> 100 µM		> 100		> 100		> 100		> 100		> 100 µM		> 100 µM		> 100 µM		> 100
O=C1c2ccccc2C(=O)c2sc(Nc3ccc([N+](=O)[O-])cc3)nc21		12 µM		15.3 µM		35.9		8.94		34.1		5.98		12.6 µM		7.55 µM		24.7 µM		28.6
Cc1ccc(NC(=O)CCC(=O)C2Cc3ccccc3C2=O)cc1C (configuration not stated)		> 100 µM		> 100 µM		> 100		> 100		> 100		> 100		> 100 µM		> 100 µM		> 100 µM		> 100
COc1ccc(-c2nnc(Nc3nc(O)c(C4=c5cc(Br)ccc5=NC4=O)s3)o2)cc1	17.2	50.1 µM	17.9	41.3 µM	1.02	8.35	19.4	63.1	17.3	48.8	20.6	75.2		3.53 µM		38.8 µM	20.6	60.4 µM	21.2	65.6
O=C(COc1cccc(/C=C2\Oc3ccc4ccccc4c3C2=O)c1)c1ccc([N+](=O)[O-])cc1	45.9	> 100 µM	14	32.1 µM	16.1	37.8	36.7	> 100	> 100	> 100	12.4	39.4	14.7	43 µM	60.2	> 100 µM	57.4	> 100 µM	12.9	35.9
C=CCC1C(=O)CC2(C)C(CC=C)C(=O)CC12C (configuration not stated)		> 100 µM		> 100 µM		> 100		> 100		> 100		> 100		> 100 µM		> 100 µM		> 100 µM		> 100
O=c1[nH]c(=O)n(C2OC(CO)C(O)C2O)cc1F (configuration not stated)	0.0104	18.1 µM		3.03 µM		27.6		1.91		> 84.6	0.018	> 100		47.5 µM	0.0236	21 µM		> 100 µM	24.9	> 100
COc1ccc(C(Nc2ccccn2)c2cc(C(C)(C)C)cc(C(C)(C)C)c2O)cc1 (configuration not stated)		> 100 µM		> 100 µM		47.9		> 100		43.2		> 100		24.4 µM		> 100 µM		59.3 µM		> 100
CCCCNCCCCCNc1cc(OC)cc2cccnc12	18.4	37.7 µM	18.3	34 µM	23.8	64.5	13.4	27.2	19.6	37.5	20.4	44.8	18	42.9 µM	45.3	> 100 µM	28.4	84.9 µM	2.77	23
CC[P+]1(c2ccccc2)CCCCC1		> 100 µM		> 100 µM		> 100		> 100		> 100		> 100		> 100 µM		> 100 µM		> 100 µM		> 100

Source: PubChem BioAssay (NCI)
